Data from patent US20090306142A1, “METHODS TO CONTROL QoI-RESISTANT FUNGAL PATHOGENS” (DOW AGROSCIENCES LLC, priority 2008, published 2009).
In brackets after ≈: the same amount, converted by molar mass. Like-named read-outs stand apart in the source and are kept apart here.

Key:
[1] = test system: SEPTTR field isolate LARS 15; assay: in vitro fungitoxicity, microtiter plate assay, strobilurin-sensitive isolate; settings: for LARS 15 EC50: isolate LARS 15, sensitive to strobilurins; for activity against the LARS 15 strain (in words): isolate LARS 15
[2] = test system: SEPTTR field isolate R2004-6 (G143A mutation in cytochrome b); assay: in vitro fungitoxicity, microtiter plate assay, strobilurin-resistant isolate; settings: for R2004-6 EC50: isolate R2004-6, G143A, resistant to strobilurins; for activity against the QoI-resistant strain R2004-6 (in words): isolate R2004-6
[3] = test system: QoI-sensitive SEPTTR isolates ('WT'); assay: in vitro fungitoxicity, panel of SEPTTR isolates, QoI-sensitive; settings: for mean EC50, QoI-Sensitive (n = 17): mean of 17 QoI-sensitive isolates
Text: (§1) A panel of 31 SEPTTR isolates was used in in vitro fungitoxicity experiments. Most of the used isolates were isolated from wheat in the UK from 2001 to 2005.

[4] = test system: QoI-resistant SEPTTR isolates ('G143A'); assay: in vitro fungitoxicity, panel of SEPTTR isolates, QoI-resistant; settings: for mean EC50, QoI-resistant (n = 14): mean of 14 QoI-resistant isolates; for fold less active against QoI-resistant than QoI-sensitive isolates: resistant vs sensitive
Text: as §1

[5] = test system: SEPTTR field isolate R2004-6 (G143A mutation in cytochrome b)
[6] = test system: QoI-resistant SEPTTR isolates; assay: in-planta control of SEPTTR on wheat cultivar Riband, QoI-resistant isolates; assay type: in vivo, Septoria tritici; settings: visual inspection 21 days after inoculation

With antimycin A the “LARS 15 EC50” value [1] was 0.021 ppm and the “R2004-6 EC50” value [2] was 0.011 ppm.
With `CO/C=C(/C(=O)OC)c1ccccc1Oc1cc(Oc2ccccc2C#N)ncn1` [Azoxystrobin, azoxystrobin] the “mean EC50, QoI-Sensitive (n = 17)” value [3] was 0.057 mg/L, the “mean EC50, QoI-resistant (n = 14)” value [4] was 9.077 mg/L and the “fold less active against QoI-resistant than QoI-sensitive isolates” value ([4]; ratio of mean EC50 values) was 160 fold. For the same molecule, the “LARS 15 EC50” value [1] was 0.011 ppm and the “R2004-6 EC50” value [2] was 3.00 ppm.
`COc1ccnc(C(=O)NC2CCCC(Sc3ccc(C(C)(C)C)cc3)C2)c1O` (stereo not shown) [Compound 3] was tested, and the “R2004-6 EC50” value [5] was 0.059 ppm and the “LARS 15 EC50” value [1] was 0.049 ppm.
For `COc1ccnc(C(=O)N[C@H]2COC(=O)[C@H](Cc3ccccc3)[C@@H](OC(=O)C(C)C)[C@H](C)OC2=O)c1OCOC(=O)C(C)C` [Compound 1], the “breaking rate for control of SEPTTR infection” value ([6]; isolate G3-03, QoI R) was 0.9 ppm, the “breaking rate for control of SEPTTR infection” value ([6]; isolate TwistB-02, QoI R) was 0.3 ppm and the “mean EC50, QoI-Sensitive (n = 17)” value [3] was 0.035 mg/L. For the same molecule, the “mean EC50, QoI-resistant (n = 14)” value [4] was 0.021 mg/L, the “fold more active against QoI-resistant than QoI-sensitive isolates” value ([4]; ratio of mean EC50 values, sensitive vs resistant) was 1.7 fold and the “activity against the LARS 15 strain (in words)” value [1] was “highly active”. For the same molecule, the “LARS 15 EC50” value [1] was 0.169 ppm, the “activity against the QoI-resistant strain R2004-6 (in words)” value [2] was “highly active” and the “R2004-6 EC50” value [2] was 0.122 ppm.
In the case of UK2A [UK-2A], the “activity against the LARS 15 strain (in words)” value [1] was “highly active”, the “LARS 15 EC50” value [1] was 0.037 ppm and the “activity against the QoI-resistant strain R2004-6 (in words)” value [2] was “highly active”. For the same molecule, the “R2004-6 EC50” value [2] was 0.029 ppm.
For `C[C@@]1(c2ccc(Oc3ccccc3)cc2)OC(=O)N(Nc2ccccc2)C1=O` (racemic) [Famoxadone, famoxadone], the “R2004-6 EC50” value [5] was over 5 ppm and the “LARS 15 EC50” value [1] was 0.136 ppm.
For `CO/N=C(/C(=O)OC)c1ccccc1COc1ccccc1C` [Kresoxim-methyl, kresoxim-methyl], the “R2004-6 EC50” value [5] was over 5 ppm and the “LARS 15 EC50” value [1] was under 0.005 ppm.
For `Fc1ccc([C@]2(Cn3cncn3)O[C@H]2c2ccccc2Cl)cc1` (racemic) [Epoxiconazole, epoxiconazole], the EC50 ([3]; Zymoseptoria tritici, read-out: mean EC50, QoI-Sensitive (n = 17)) was 0.351 mg/L (≈ 1.06 µM), the EC50 ([4]; Zymoseptoria tritici, read-out: mean EC50, QoI-resistant (n = 14)) was 0.589 mg/L (≈ 1.79 µM) and the “fold less active against QoI-resistant than QoI-sensitive isolates” value ([4]; ratio of mean EC50 values) was 1.7 fold.
With `CCC1(C)CC(NC(=O)c2cccc(NC=O)c2O)CC(C)(C)C1` (stereo not shown) [Compound 2] the “R2004-6 EC50” value [5] was under 0.0005 ppm and the “LARS 15 EC50” value [1] was 0.0006 ppm.
